In patent US20080305097A1, “Use of Protease or a Protease Inhibitor for the Manufacture of Medicaments” (YEDA RESEARCH AND DEVELOPMENT CO., LTD., priority 2004, published 2008):

How the values were obtained:
[1] = tested on: hematopoietic progenitor cell (HPC); experiment: In vivo progenitor mobilization by SDF-1 or HGF, semi solid culture; design: species or system Balb/c mice; details: subcutaneously five consecutive days, 10 mcg SDF-1 or 1.5 mcg HGF
Experimental: (§1) We carried out the following experiment to verify in vivo our hypothesis that SDF-1 induces osteoclast activation and hematopoietic progenitor cell (HPC) mobilization. Balb/c mice were injected subcutaneously for five consecutive days with 10 mcg SDF-1 or 1.5 mcg HGF or both, and osteoclast activation (measured by TRAP+ staining as in Example 1) and mobilization to the peripheral blood, (assayed in semi solid culture as in Example 1) was determined.
(§2) In order to detect the levels of mouse progenitors in the blood circulation, semisolid cultures were performed as previously described (Petit, Nat Immunol, 2002). In brief, mouse BM cells (3×10^5 cells/ml) were plated in 0.9% methylcellulose (Sigma), 30% FCS, 5×10^−5M 2ME, 50 ng/ml SCF, 5 ng/ml IL-3, 5 ng/ml GM-CSF (R&D), and 2 u/ml erythropoietin (Orto Bio Tech, Don Mills, Canada). The cultures were incubated at 37° C. in a humidified atmosphere containing 5% CO2 and scored 7 days later by inverted microscopy by morphologic criteria.

SDF-1 [2] = experiment: SDF-1 transcription (RT-PCR) and secretion (ELISA) in primary calvaria osteoblasts; format: cell-based, mouse; details: 50 ng/ml, 3 days
Experimental: Osteoblast were incubated with G-CSF, HGF or remained untreated, and SDF-1 transcription and expression was determined in such cells (FIG. 9).
Primary calvaria osteoblasts were cultured for 3 days in the presence of SDF-1 (PeproTech, 100 […]), HGF (PeproTech, 50 ng/ml) and G-CSF (Filgrastin, Roche, 50 ng/ml). Conditioned media was collected to determine SDF-1 concentration by ELISA, as described in Example 2. Determination of SDF-1 transcription and expression as in Example 2.

[3] = tested on: TRAP+ multinucleated osteoclasts; experiment: Osteoblast/BM co-culture, TRAP+ multinucleated osteoclast count; format: cell-based, mouse; details: G-CSF 50 ng/ml, HGF 50 ng/ml, SDF-1 10 and 100 ng/ml; 5 days
Experimental: Osteoclast precursors are stimulated by cell-cell contact with osteoblasts to become activated multinucleated TRAP+ bone resorbing cells. To obtain active osteoclasts in vitro, a clvarian osteoblasts are incubated with Vitamine D3 and PG2E which potentiate their M-CSF production and RANKL expression, needed for osteoclast activation. BM cells which contain osteoclast precursors are seeded then on the osteoblast monolayer, for 5 days, to obtain active multinucleated osteoclasts.
A co-culture of primary mouse osteoblasts and BM (containing ocl precursors as detailed above) was seeded in the presence of G-CSF (50 ng/ml), HGF (50 ng/ml), or SDF-1 (10 and 100 ng/ml). Five days later, TRAP+ multinucleated osteoclasts in the cultures were stained (as described in Example 1) and counted 5 days later.

osteoclast = experiment: In vivo osteoclast activation by SDF-1 or HGF, TRAP staining; design: species or system Balb/c mice; details: subcutaneously five consecutive days, 10 mcg SDF-1 or 1.5 mcg HGF
Experimental: as §1

CXCR4 = CXCR4 expression in BM and PB by flow cytometry after LPS; format: in vivo, Balb/c mice; details: both BM and PB, 16 hours post LPS
Experimental: We monitored CXCR4 expression in BM and PB of LPS treated mice, 16 hours post LPS administration, and in control non treated mice.

TRAP+ osteoclasts = experiment: TRAP staining of activated osteoclasts in BM after LPS; format: in vivo, Balb/c mice; details: LPS 250 μg/mouse single injection, 5 days later
Experimental: LPS (Sigma) was administered to Balb/c mice in a single subcutaneous injection of 250 μg/mouse, and saline was injected instead of LPS in control groups. 5 days following LPS administration, mice were sacrificed, bones were fixed, decalcified, paraffin embedded and sectioned, BM harvested, and the level of TRAP+ osteoclast (activated osteoclast) monitored.
In this assay substrate is exogeneously provided to measure intrinsic activity of the tissue TRAP in the BM of LPS treated mice (FIGS. 1A and B).

mononuclear cells (MNC) = experiment: Mononuclear cell counts in BM and PB by hemacytometer after LPS; format: in vivo, Balb/c mice; details: 16 hours post LPS, versus non treated mice
Experimental: (§3) In order to verify that the progenitor increase detected in PB in the LPS treated mice, results from the egress or mobilization of cells from the bone marrow, mononuclear cells (MNC) were monitored in the BM and in PB by counting numbers of ficolled WBC (leukocytes), using hemacytometer shortly after LPS treatment (16 hours post LPS treatment) and in BM and PB of non treated mice (FIG. 3).

SDF-1 [4] = experiment: SDF-1 concentration in bone marrow by ELISA after LPS; format: in vivo, Balb/c mice
Experimental: Mice were administered for 5 days with LPS as described in example 1 and SDF-1 concentration in bone marrow was monitored (by ELISA as described by Petit et al 2002).
as §3

CTK = experiment: Semi quantitative RT-PCR of BM after LPS: CTK; format: in vivo, mouse; details: LPS treated mice, 5 days
Experimental: (§4) One femur of each mouse was flushed with Trireagent for RNA extraction. 1 ug RNA was used for the preparation of cDNA. Semi quantitative RT-PCR was used to measure the transcription of mouse SDF-1, HGF and CTK. The following primers were used: SDF-1 (Ponomaryov, 2000, J. Clin. Invest. 106:1331): left primer (SEQ ID NO: 1) 5′-[…]-3′, right primer (SEQ ID NO: 2) 5′-[…]-3′. HGF (Weinstein, 2001, Moll Cell boil, 21(15):5122): left primer (SEQ ID NO: 3) 5′-[…]-3′, right primer (SEQ ID NO: 4) 5′-[…]-3′. CTK: left primer (SEQ ID NO: 5) 5′-[…]-3′, right primer (SEQ ID NO: 6) 5′-[…]-3′.

HGF = experiment: Semi quantitative RT-PCR of BM after LPS: HGF; format: in vivo, mouse; details: LPS treated mice, 5 days
Experimental: as §4

SDF-1 [5] = experiment: Semi quantitative RT-PCR of BM after LPS: SDF-1; format: in vivo, mouse; details: LPS treated mice, 5 days
Experimental: as §4

progenitors = experiment: CFU assay of progenitors in peripheral blood after LPS; format: in vivo, Balb/c mice
Experimental: Mice were administered for 5 days with LPS (as described in Example 1) and progenitor increase in peripheral blood (PB) was measured (as in Example 9).
as §2

| Substance | mobilization of progenitors in vivo [1] | SDF-1 transcription in osteoblasts (SDF-1 [2]) | SDF-1 production in osteoblasts (SDF-1 [2]; conditioned media ELISA) | level of activated TRAP+ osteoclasts [3] | osteoclast activation in vivo (osteoclast) | level of CXCR4 expression (CXCR4) | TRAP+ osteoclasts in the BM (TRAP+ osteoclasts) | decrease of MNC cells in the BM (mononuclear cells (MNC)) | increase of MNC cells in the PB (mononuclear cells (MNC)) | decrease in BM SDF-1 concentration (SDF-1 [4]; 16 hours post LPS, versus non treated mice) | BM SDF-1 concentration (SDF-1 [4]; 5 days LPS) [ng/mg protein] | decrease in BM SDF-1 concentration (SDF-1 [4]; 5 days LPS, versus non-treated control) | CTK transcription in the BM (CTK) | HGF transcription in the BM (HGF) | SDF-1 transcription in the BM (SDF-1 [5]) | progenitor mobilization (progenitors; 16 hours post LPS) | level of progenitors in PB, higher than control non-treated mice (progenitors; 5 days LPS) | progenitor colonies in PB (progenitors; 5 days LPS) |
| --- | --- | --- | --- | --- | --- | --- | --- | --- | --- | --- | --- | --- | --- | --- | --- | --- | --- | --- |
| HGF: hepatocyte growth factor (PeproTech) | induced | induce | induce | significantly increased | induced | – | – | – | – | – | – | – | – | – | – | – | – | – |
| lipopolysaccharide [LPS] | – | – | – | – | – | significant increase | dramatic increase in TRAP+ osteoclasts | about 53% | about 78% | about 55% | 0.4 | about 66% | dramatic increase | dramatic increase | decrease | significant increase in progenitor mobilization | about 95% | about 100 colonies per 5×10^5 seeded cells |
